“Also recorded” adds a separate entry of the source.
Experiments:
[1] = tested on: ischemic stroke patients; conditions: human, in vivo, 5 days
Method: NMDA receptor antagonists can cause adverse events in ischemic stroke patients.
(§1) The ENIS trial was to examine efficacy as well as safety of the intravenous infusions of nelonemdazK for acute ischemic stroke patients (35-80 years old) receiving at least one kind of thrombolytic drugs including rtPA or urokinase within 8 hours of onset. A total of 238 patients were enrolled for the ENIS trial and allocated randomly in a double-blinded manner to one of 4 groups for the intravenous infusions of test drugs as follows: (Group A) placebo [0.9% normal saline], (Group B) 2,750 mg nelonemdazK for 5 days [500 mg for 1st infusion followed by 2nd-10th infusions approximately at 12 h intervals (250 mg for each infusion)], (Group C) 5,250 mg nelonemdazK for 5 days [750 mg for 1st infusion followed by 2nd-10th infusions approximately at 12 h intervals (500 mg for each)], and (Group D) 6,000 mg nelonemdazK for 5 days [1500 mg for 1st infusion followed by 2nd-10th infusions approximately at 12 h intervals (500 mg for each)]. Acute ischemic stroke patients due to occlusion in internal carotid artery system within 8 hours of onset were enrolled. Patients with The National Institutes of Health Stroke Scale (NIHSS; range 0-42, with higher scores indicating greater stroke severity) scores of 4 to 22 and limb weakness including motor arm or motor leg score≥2 of NIHSS were included. All the patients received at least one kind of thrombolytic therapy before treatment of any study drug.

[2] = tested on: mice treated with rt-PA after embolic stroke; assay: Embolic stroke in mice treated with rt-PA: hemorrhage and brain injury at 24 h; assay type: in vivo; conditions: 10 mg/kg rt-PA plus nelonemdazK IV at 4.5 hours after embolic stroke, analyzed at 24 hours
Method: Embolic stroke was induced by injection of blood clot into the right internal carotid artery of mice. Animals received intravenous administration of saline, 10 mg/kg rt-PA, or 10 mg/kg rt-PA plus nelonemdazK through femoral vein at 4.5 hours after embolic stroke. rt-PA was dissolved in water and injected over 20 min. NelonemdazK was dissolved in saline and injected over 5 min immediately after rt-PA infusion. Hemorrhage and brain injury were analyzed 24 hours after embolic stroke.

[3] = tested on: acute ischemic stroke patients; assay: ENIS phase II trial: acute ischemic stroke patients receiving a thrombolytic drug; assay type: in vivo, human; conditions: for good recovery ratio (patients with NIHSS score of 0-1 or decrease of NIHSS score≥4): 14 days; for ratio of mRS 0 (no symptoms at all): 6,000 mg
Method: as §1
The beneficial effects of nelonemdazK were further observed by analyzing “the ratio of patients with NIHSS score of 0-1 or decrease of NIHSS score≥4 (=the good recovery ratio)” at 14 days after drug treatment. […] This implies that the beneficial effects of nelonemdazK are better for moderate to severe ([…]) ischemic stroke patients than mild (NIHSS score≤5) patients.

[4] = tested on: healthy volunteers; conditions: human, in vivo
Excerpt: NMDA receptor antagonists were reported to produce serious side effects in healthy humans.

[5] = tested on: adult rats treated with rt-PA after 3-h tMCAO; assay: rt-PA-induced hemorrhagic transformation following 3-h occlusion of middle cerebral artery (tMCAO); assay type: in vivo, rat; conditions: for hemorrhage / hemorrhagic transformation in the brain: 10 mg/kg rt-PA IV plus 30 mg/kg IV after reperfusion, 3-h tMCAO, 24 h, potassium salt
Method: Male Sprague-Dawley rats (300-350 g; 15-16 animals/group) were anesthetized with chloral hydrate (400 mg/kg, IP) and the anesthesia was sustained for about 1.5 h during the procedure. The rectal temperature was recorded and maintained at 37.0-37.5° C. using a rectal probe and homoeothermic blanket controlled by a temperature control unit (Letica Scientific Instruments). Occlusion of the MCA was done according to the previous report (Gwag et al., 2007). Briefly, the right common carotid artery, external carotid artery (ECA), and internal carotid artery (ICA) were exposed. A length of 4-0 monofilament nylon suture (17 mm, pre-coated with silicone) with its tip rounded by heating near a flame was advanced from the lumen of the ICA until it blocked the origin of the middle cerebral artery (MCA). The suture remained for 3 h and was withdrawn for reperfusion. After 24 h, the brain was removed immediately, placed in the fixative for 15 min, and used for further analysis.
Animals received transient focal cerebral ischemia for 3 h as described above with intravenous administration of 10 mg/kg rt-PA or 10 mg/kg rt-PA plus 30 mg/kg nelonemdazK after reperfusion. rt-PA (10 mg/kg) dissolved in water for injection ([…]) was injected through femoral vein over 20 min from 5 min after reperfusion. NelonemdazK (30 mg/kg) dissolved in saline (6 mg/mL; 5 mL/kg) was injected through femoral vein over 5 min immediately after the end of rt-PA infusion.

For `O=C([O-])c1cc(NCc2c(F)c(F)c(C(F)(F)F)c(F)c2F)ccc1O.[K+]` [nelonemdazK, 2-Hydroxy-5-(2,3,5,6-tetrafluoro-4-trifluoromethylbenzylamino)benzoic acid potassium salt], which “% of subjects showing abnormal behavior: Agitation” value [1] is on record?
The value was 2%.

And the “% of subjects showing abnormal behavior: Confusion” value [1]?
Its value is 0 (0%).

What about the “% of subjects showing abnormal behavior: Delirium” value [1] of the same compound?
Its value is 0 (0%).

And the “% of subjects showing abnormal behavior: Hallucination” value [1]?
Its value is 0 (0%).

And the “% of subjects showing abnormal behavior: Paranoia” value [1]?
The value was 0 (0%).

And the “% of subjects showing abnormal behavior: Stupor” value [1]?
The value was 1 (1%).

What about the “Number of subjects showing abnormal behavior: Agitation” value [1] of the same compound?
Its value is 4.

What about the “Number of subjects showing abnormal behavior: Confusion” value [1] of the same compound?
Its value is 0 (0%).

What about the “Number of subjects showing abnormal behavior: Delirium” value [1] of the same compound?
Its value is 0 (0%).

What about the “Number of subjects showing abnormal behavior: Hallucination” value [1] of the same compound?
Its value is 0 (0%).

What about the “Number of subjects showing abnormal behavior: Paranoia” value [1] of the same compound?
The value was 0 (0%).

And the “Number of subjects showing abnormal behavior: Stupor” value [1]?
Its value is 1 (1%).

What about the “levels of hemoglobin in the ischemic brain region” value [2] of the same compound?
The value was “significantly reduced”.

And the “hemorrhage / hemorrhagic transformation in the ischemic brain region” value ([2]; potassium salt, 10 mg/kg)?
Its value is “significantly reduced; also recorded: prevents hemorrhagic transformation”.

What about the “percentage of mRS 0-2 (functional independence)” value ([3]; 6,000 mg for 5 days, 14, 30, and 90 days, baseline NIHSS 6-24, vs placebo, potassium salt) of the same compound?
Its value is “increases”.

What about the “good recovery ratio (patients with NIHSS score of 0-1 or decrease of NIHSS score≥4)” value ([3]; 6,000 mg (N=9), baseline NIHSS 9-24 (placebo 20%, p=0.022)) of the same compound?
The value was 50%.

And the “good recovery ratio (patients with NIHSS score of 0-1 or decrease of NIHSS score≥4)” value ([3]; 6,000 mg (N=36), baseline NIHSS 6-24 (placebo 25.53%, p=0.106))?
Its value is 41.67%.

And the “ratio of mRS 0 (no symptoms at all)” value ([3]; at 14 days, baseline NIHSS 6-24 (placebo 12%))?
The value was 25%.

What about the “ratio of mRS 0 (no symptoms at all)” value ([3]; at 30 days, baseline NIHSS 6-24 (placebo 16%)) of the same compound?
Its value is 34%.

What about the “ratio of mRS 0 (no symptoms at all)” value ([3]; at 90 days, baseline NIHSS 6-24 (placebo 26%)) of the same compound?
Its value is 45%.

And the “Number of subjects showing abnormal behavior: Agitation” value [4]?
The value was 0.

And the “Number of subjects showing abnormal behavior: Catatonia” value [4]?
The value was 0.

And the “Number of subjects showing abnormal behavior: Confusion” value [4]?
Its value is 0.

What about the “Number of subjects showing abnormal behavior: Hallucination” value [4] of the same compound?
The value was 0.

What about the “Number of subjects showing abnormal behavior: Paranoia” value [4] of the same compound?
The value was 0.

What about the “rate of hemorrhagic transformation” value ([5]; 10 mg/kg rt-PA IV plus 30 mg/kg IV after 3-h tMCAO, p<0.05 Fisher's exact test) of the same compound?
The value was “significantly reduced”.

What about the “hemorrhage / hemorrhagic transformation in the brain” value ([5]; listed as NelonemdazK) of the same compound?
Its value is “prevented hemorrhage”.

What about the “hemorrhage / hemorrhagic transformation in the brain” value [5] of the same compound?
The value was “prevents hemorrhagic transformation”.

— patent US12433861B2, “Compositions and methods for treating reperfusion injury or hemorrhage after recanalization therapy” (GNT Pharma Co., Ltd., priority 2020, dated 2025)
